One test has as its target T1, Atypical chemokine receptor 3 (Homo sapiens, UniProt P25106). Briefly: Displacement of [125I]SDF-1alpha from CXCR7 (unknown origin) expressed in CHO cells after 1 hr by TopCount scintillation counting analysis. The format is cell-based.
T1 sequence (P25106 whole entry): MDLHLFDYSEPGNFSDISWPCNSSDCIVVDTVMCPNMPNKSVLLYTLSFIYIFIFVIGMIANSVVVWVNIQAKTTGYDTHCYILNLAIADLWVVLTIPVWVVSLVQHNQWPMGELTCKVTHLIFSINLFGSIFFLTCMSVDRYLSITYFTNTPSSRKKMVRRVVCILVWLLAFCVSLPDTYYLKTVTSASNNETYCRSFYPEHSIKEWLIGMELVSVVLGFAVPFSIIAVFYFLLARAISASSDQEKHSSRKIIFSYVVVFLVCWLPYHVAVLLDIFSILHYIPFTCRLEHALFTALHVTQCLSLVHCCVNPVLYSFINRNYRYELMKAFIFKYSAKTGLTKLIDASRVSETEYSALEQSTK
Molecule `CCC(C(=O)NCCCN(CC)Cc1ccccc1)n1nc(C)c2sc3ccccc3c2c1=O` (stereo not given) registered an IC50 of 2.78 µM.
`CCN1CCc2nc3sc(C(=O)N4CCc5ccccc5C4)c(N)c3cc2C1` showed an IC50 of 10 µM. Against the preceding molecule, the IC50 is about 3.6-fold higher.
On the same count and under the same terms, the result for `Cc1cc(OCC(=O)NC2CCN(Cc3ccccc3)CC2)c2c(C)cc(=O)oc2c1` reads 1.49 µM.
Still for that read-out and setting: the result for `O=C(c1ccc(N2CCc3ccccc32)s1)N1CCC(N2CCCCC2)CC1` reads 3.2 µM; that for `CCCCN(CC)CCNC(=O)c1ccc(N2CCc3ccccc32)s1`, 3.89 µM.
In turn, `CN(C)c1ccc(/C=C2\SC(N3CCN(CCO)CC3)=NC2=O)cc1` registered an IC50 of 5.36 µM.
For the molecule `CCN1CCCC1CNC(=O)CN1C(=O)/C(=C/c2ccccc2F)Sc2ccccc21` (stereo not given), the IC50 came to 6.19 µM.
`CCC1CCCCN1CCCNC(=O)CSc1cc(=O)n(C)c2ccc(Cl)cc12` (stereo not given) showed an IC50 of 2.16 µM.
Still for that read-out and setting: for `CC1CCCN(CC(O)COc2ccc3c4c(c(=O)oc3c2)CCC4)C1` (stereo not given) the value was 1.29 µM; for `Cc1ccc2c(c1)-c1onc(C(=O)NCCN3CCCCC3C)c1CO2` (stereo not given), 2.64 µM; for `O=C(NCCCN(Cc1ccco1)C1CCCC1)c1cc2c(s1)-c1ccccc1SC2`, 11.4 µM.
Same read-out and setting: for `CC1CCCCN1CCNC(=O)c1cc2c(s1)-c1ccc(Cl)cc1SC2` (stereo not given) the value was 5.27 µM; for `CN(Cc1ccccc1NC(=O)/C=C/c1cnn(-c2ccccc2)c1)C1CCCCC1`, 5.84 µM.
Still for that read-out and setting: for `Cc1ccc2[nH]c(=O)c3cc(C(=O)NCCN4CCCCCC4)sc3c2c1` the value was 7 µM; for `Cc1ccc(C(=O)Nc2ncc(CN3CCC(c4ccccc4)C3)s2)cc1` (stereo not given), 4.35 µM; for `CC1CCCCN1CC(O)COc1ccc2c3c(c(=O)oc2c1)CCC3` (stereo not given), 8.02 µM.
In the case of `CCN1CCCC1CNC(=O)c1ccc(-n2ccc3ccccc32)s1` (stereo not given), the IC50 came out at 6.75 µM.
The same measure, in the same setting: for `CN(CCCNC(=O)c1cc2c(=O)n(C)c3ccccc3c2s1)Cc1ccccc1` the value was 2.21 µM; for `CCOc1cc(NC(=S)NCCCN(C)C)c(OCC)cc1NC(=O)c1ccc(C)cc1`, 9.79 µM; for `COc1ccccc1C(CNC(=O)c1cc(-c2ccc(Br)cc2)on1)N1CCC(C)CC1` (stereo not given), 1.87 µM.
Still for that read-out and setting: for `Cc1ccc2c(c1)-c1onc(C(=O)NCCCN3CC(C)CC(C)C3)c1CO2` (stereo not given) the value was 2.92 µM.

In a further test the target is T1, Atypical chemokine receptor 3. Kind of test: Binding affinity to CXCR7 (unknown origin).
`COc1ccc2c(c1)c1c(cnn1CC(=O)NCCN(C)C1CCCCC1)c(=O)n2C`: the 50% inhibitory concentration (IC50) is below 1 µM.
Molecule `O=C(c1cc2c(s1)-c1ccc(Cl)cc1SC2)N1CCC(N2CCCCC2)CC1` showed an IC50 of 6.33 µM.
Same read-out and setting: for `COc1c(C)cc2cccnc2c1N1CCCN(C(C(=O)N2CCNCC2)c2csc(C(C)C)n2)CC1` (stereo not given) the value was below 0.1 µM; for `CCc1ccc(NC(=O)CSc2nc3ccccc3c(=O)n2CCCC(=O)NCN2CCOCC2)cc1`, 4.74 µM.
